This note sets out measurements from patent US6013649A, “Thiol sulfone metalloprotease inhibitors” (Monsanto Company, priority 1997, dated 2000).

In one test the target is T1, hMMP 13 (Homo sapiens, UniProt P45452).
T1 construct: made in house
The experiment in a line: In vitro metalloprotease inhibition, fluorogenic peptide substrate (recombinant human MMP-13, APMA activated). It is filed as biochemical. The settings on record: recombinant human MMP-13, room temperature, pH 7.5, 4 μM substrate. On the procedure: (§1) Briefly, 4-aminophenylmercuric acetate (APMA) or trypsin activated MMPs were incubated with various concentrations of the inhibitor compound at room temperature for 5 minutes (0.02% 2-mercaptoethanol added to buffer for thiol compounds with 5 minutes or overnight incubation).
(§2) More specifically, recombinant human MMP-13 and MMP-1 enzymes were prepared in laboratories of the assignee. MMP-13 was expressed in baculovirus as a proenzyme, and purified first over a heparin agarose column and then over a chelating zinc chloride column. The proenzyme was activated by APMA for use in the assay. MMP-1 expressed in transfected HT-1080 cells was provided by Dr. Howard Welgus of Washington University, St. Louis, Mo. The enzyme was also activated using APMA and was then purified over a hydroxamic acid column.
(§3) The enzyme substrate is a methoxycoumarin-containing polypeptide having the following sequence:
(§4) MCA-ProLeuGlyLeuDpaAlaArgNH^2, wherein MCA is methoxycoumarin and Dpa is 3-(2,4--dinitrophenyl)-L-2,3-diaminopropionyl alanine.
(§5) Assays were carried out at room temperature, and dimethyl sulfoxide (DMSO) at a final concentration of 1 percent was used to dissolve inhibitor compound.
(§6) The assayed inhibitor compound in DMSO/buffer solution was compared to an equal amount of DMSO/buffer with no inhibitor as control using Microfluor™ White Plates (Dynatech). The inhibitor or control solution was maintained in the plate for 10 minutes and the substrate was added to provide a final concentration of 4 μM.
(§7) Inhibition was measured as a reduction in fluorescent intensity as a function of inhibitor concentration, using a Perkin Elmer L550 plate reader. The IC50 values were calculated from those values.

The target of the next test is T2, hMMP 1 (Homo sapiens, UniProt P03956).
T2 construct: host or cells: transfected HT-1080 cells
T2 sequence (P03956 100-469): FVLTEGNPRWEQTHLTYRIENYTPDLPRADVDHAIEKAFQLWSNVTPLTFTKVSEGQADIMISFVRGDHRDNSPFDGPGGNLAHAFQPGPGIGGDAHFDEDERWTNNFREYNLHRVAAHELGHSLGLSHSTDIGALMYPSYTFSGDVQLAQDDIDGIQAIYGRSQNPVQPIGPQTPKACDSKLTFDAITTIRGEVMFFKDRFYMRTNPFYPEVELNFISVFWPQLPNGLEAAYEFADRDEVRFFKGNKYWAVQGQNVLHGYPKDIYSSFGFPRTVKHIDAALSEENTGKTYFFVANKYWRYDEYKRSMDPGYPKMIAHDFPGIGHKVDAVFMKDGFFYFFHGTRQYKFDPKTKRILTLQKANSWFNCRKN
The experiment in a line: In vitro metalloprotease inhibition, fluorogenic peptide substrate (recombinant human MMP-1, APMA activated). It is filed as biochemical. The note with it: human MMP-1, room temperature, pH 7.5, 4 μM substrate. How it is done:
as §1, §2, §3, §4, §5, §6, §7

The IC50 is the concentration that inhibits the measured activity by half. Consider `O=S(=O)(CCCS)c1ccc(OCCCc2ccccc2)cc1` [Example 4, 3-[(4-{3-phenylpropyloxy)phenyl}sulfonyl]-propanethiol], for which the figures for the 50% inhibitory concentration (IC50) on hMMP 13 and on hMMP 1 were 1 µM and over 10 µM, respectively.
In the case of `CCCOc1ccc(S(=O)(=O)CCCS)cc1` [Example 29, 3-[(4-propoxyphenyl)sulfonyl]propanethiol], the 50% inhibitory concentration (IC50) at hMMP 13 was determined as 0.055 µM; at hMMP 1, 10 µM.
Taken in the same sequence, the figures for `COC(=O)C(S)CCS(=O)(=O)c1ccc(OC)cc1` (racemic) [Example 10, (R,S)-Methyl-4-[(4-methoxyphenyl)sulfonyl]-2-mercaptobutanoate] were 0.015 µM and 4 µM.
Taken in the same sequence, the figures for `CCCC(CCS)S(=O)(=O)c1ccc(OC)cc1` (stereo not drawn) [Example 20, 3-[(4-methoxyphenyl)sulfonyl]hexane-1-thiol] were 0.007 µM and 1.5 µM.
Taken in the same sequence, the figures for `CC(C)(C)OC(=O)COc1ccc(S(=O)(=O)CCCS)cc1` [Example 5] were 0.4 µM and over 10 µM.
Turning to `O=S(=O)(CCCS)c1ccc(-c2ccccc2)cc1` [Example 37, 3-[(4-phenyl)phenylsulfonyl]propane-1-thiol], the concentration for half-maximal inhibition (IC50) was 0.17 µM on hMMP 13 and over 10 µM on hMMP 1.
Taken in the same sequence, the figures for `O=C(O)COc1ccc(S(=O)(=O)CCCS)cc1` [Example 6] were over 10 µM and over 10 µM.
Taken in the same sequence, the figures for `COc1ccc(S(=O)(=O)CCCS)cc1` [Example 13, 3-[(4-methoxyphenyl)sulfonyl]propane-1-thiol] were 0.07 µM and 8 µM.
For `O=S(=O)(CCCS)c1ccc(Oc2ccccc2)cc1` [Example 36, 3-[(4-phenoxy)phenylsulfonyl]propane-1-thiol], the figures for the IC50 on hMMP 13 and at hMMP 1 were 0.0006 µM and 2.4 µM, respectively.
Taken in the same sequence, the figures for `CCCCCC(CCS)S(=O)(=O)c1ccc(OC)cc1` (stereo not drawn) [Example 22, 3-[(4-methoxyphenyl)sulfonyl]-octane-1-thiol] were 0.0005 µM and 1.1 µM.
For the compound `COc1ccc(S(=O)(=O)CC(C)(C)CS)cc1` [Example 15, 3-[(4-methoxyphenyl)sulfonyl]-2,2-dimethylpropane-1-thiol], on hMMP 13, the concentration for half-maximal inhibition (IC50) came to 0.7 µM.
`COc1ccc(S(=O)(=O)C[C@@H](C)CS)cc1` [Example 3, 3-[(4-methoxyphenyl)sulfonyl]-2(S)-methylpropanethiol]: the 50% inhibitory concentration (IC50) at hMMP 1 was over 10 µM.
For `COc1ccc(S(=O)(=O)CC(CS)NC(C)=O)cc1` (stereo not drawn) [Example 32, N-[1-(mercaptomethyl)-2-[(4-methoxyphenyl)sulfonyl)ethyl)acetamide], the IC50 on hMMP 13 was determined as 0.07 µM; at hMMP 1, 4 µM.
Take `CCCCOc1ccc(S(=O)(=O)CCCS)cc1` [Example 27, 3-[(4-butoxyphenyl)sulfonyl]propane-1-thiol]: the concentration for half-maximal inhibition (IC50) at hMMP 13 is 0.04 µM; on hMMP 1 it was over 10 µM.
Taken in the same sequence, the figures for `COc1ccc(S(=O)(=O)CC(C)S)cc1` (racemic) [Example 1, (R,S)1-[(4-methoxyphenyl)-sulfonyl]propane-2-thiol] were 0.4 µM and 4 µM.
As for `COc1ccc(S(=O)(=O)C2CCC(S)C2)cc1` (stereo not drawn) [Example 9], the IC50 on hMMP 13 stood at 0.5 µM.
Regarding `COc1ccc(S(=O)(=O)CCC(S)c2ccccc2)cc1` (stereo not drawn) [Example 24, 3-[(4-methoxyphenyl)sulfonyl]-1-phenylpropane-1-thiol], the results for the IC50 at hMMP 13 and at hMMP 1 were 0.048 µM and 3.5 µM, respectively.
Taken in the same sequence, the figures for `COc1ccc(S(=O)(=O)CCS)cc1` [Example 34, 1-[(4-methoxyphenyl)sulfonyl]ethane-2-thiol] were 0.2 µM and 8 µM.
Taken in the same sequence, the figures for `O=S(=O)(CCCS)c1ccccc1` [Example 30, 3-(phenylsulfonyl)propane-1-thiol] were 0.9 µM and over 10 µM.
In the case of `CCCC[C@]1(S(=O)(=O)c2ccc(OC)cc2)CCC[C@@H](S)C1` [Example 8, (R,S)3-butyl-3-[(4-methoxyphenyl)sulfonyl]cyclohexanethiol], the figures for the concentration for half-maximal inhibition (IC50) on hMMP 13 and at hMMP 1 were 1.3 µM and over 10 µM, respectively.
Taken in the same sequence, the figures for `COc1ccc(S(=O)(=O)CC(CS)NC(=O)CNC(=O)OCc2ccccc2)cc1` (racemic) [Example 33, 2-R,S-(N-carbobenzyloxy-glycyl)amino-3-(4-methoxybenzenesulfonyl)propanethiol] were 0.042 µM and 0.9 µM.
Taken in the same sequence, the figures for `CCCCOc1ccc(S(=O)(=O)C(CCS)Cc2ccccc2)cc1` (stereo not drawn) [Example 28, 3-[(4-butoxyphenyl)sulfonyl]-4-phenylbutane-1-thiol] were 0.0015 µM and 9 µM.
For the compound `COc1ccc(S(=O)(=O)CCCCS)cc1` [Example 25, 4-[(4--methoxyphenyl)sulfonyl]butane-1-thiol], the IC50 on hMMP 13 was 0.7 µM; on hMMP 1, over 10 µM.
Taken in the same sequence, the figures for `CCCCCCCCCC(CCS)S(=O)(=O)c1ccc(OC)cc1` (stereo not drawn) [Example 17, 3-[(4-methoxyphenyl)sulfonyl]-dodecane-1-thiol] were 0.21 µM and over 10 µM.
In the case of `COc1ccc(S(=O)(=O)C(CCS)Cc2ccccc2)cc1` (stereo not drawn) [Example 18, 3-[(4-methoxyphenyl)sulfonyl]-4-phenylbutane-1-thiol], the 50% inhibitory concentration (IC50) on hMMP 1 is 0.06 µM.
For the compound `COc1ccc(S(=O)(=O)C(C)CCS)cc1` (stereo not drawn) [Example 19, 3-[(4-methoxyphenyl)sulfonyl]-butane-1-thiol], the figures for the half-inhibitory concentration (IC50) at hMMP 13 and on hMMP 1 were 0.2 µM and 7 µM, respectively.
Consider `O=S(=O)(c1ccc(Sc2ccccc2)cc1)[C@@H]1CCC[C@@H](S)C1` (relative stereo) [Example 38, (R,S)trans-3-[(phenylthio)phenylsulfonyl]cyclohexanethiol], for which, at hMMP 1, the half-maximal inhibitory concentration (IC50) is over 10 µM.
Take `COc1ccc(S(=O)(=O)C[C@H](C)CS)cc1` [Example 14, 3-[(4-methoxyphenyl)sulfonyl]-2R-methylpropane-1-thiol]: the values for the IC50 at hMMP 13 and on hMMP 1 were 0.19 µM and 6.5 µM, respectively.
In the case of `COc1ccc(S(=O)(=O)[C@@H]2CCC[C@@H](S)C2)cc1` (relative stereo) [Example 7, (R,S)trans-3-[(4-methoxyphenyl)sulfonyl]cyclohexanethiol], on hMMP 1, the IC50 stood at 1 µM.
Consider `COc1ccc(S(=O)(=O)CCC(C)S)cc1` (racemic) [Example 2, (R,S)-4-[(4-methoxyphenyl)-sulfonyl]butane-2-thiol], for which the IC50 at hMMP 13 is 0.033 µM; at hMMP 1, 8 µM.
Taken in the same sequence, the figures for `CNC(=O)CC(CCS)S(=O)(=O)c1ccc(OC)cc1` (stereo not drawn) [Example 31] were 0.035 µM and 4.75 µM.
Taken in the same sequence, the figures for `COc1ccc(CS(=O)(=O)CCCS)cc1` [Example 11, (R,S)-3-[(4-methoxybenzyl)-sulfonyl]propane thiol] were over 10 µM and over 10 µM.
Regarding `CCC(CCS)S(=O)(=O)c1ccc(OC)cc1` (stereo not drawn) [Example 16, 3-[(4-methoxyphenyl)sulfonyl]-pentane-1-thiol], the 50% inhibitory concentration (IC50) was 0.004 µM on hMMP 13 and 0.6 µM at hMMP 1.
